Publication PMC8699718, “A structurally conserved site in AUP1 binds the E2 enzyme UBE2G2 and is essential for ER-associated degradation” (PLoS Biology, 2021)
Ends that are not written are not given here.

Tested on: NHK (Null Hong Kong variant of alpha1-antitrypsin)
Assay: CHX chase: NHK degradation in HT1080 AUP1 KO cells
Type: cell-based, human
Protocol: Fig 1 The G2BR of AUP1 is required for ERAD of NHK. (A) HT1080 or cells in which HRD1 was knocked out by CRISPR/Cas-9 (HRD1 KO) were transfected with plasmid encoding carboxyl-terminally HA-tagged NHK. Cells were treated with CHX for the indicated times to inhibit protein synthesis and NHK-HA degradation monitored by western blot. GFP and HSP60 serve as transfection efficiency and gel loading controls, respectively. (B) HT1080 or cells in which either AUP1 or gp78 was knocked out (AUP1 KO or gp78 KO) were transfected with NHK-HA and their degradation assessed. (C) AUP1 KO cells were transfected with NHK-HA and empty vector or plasmid encoding carboxyl-terminally FLAG-tagged AUP1 and NHK degradation assessed. (D) Indicated cells were transfected with plasmid encoding carboxyl-terminally MYC-tagged INSIG-1 and assessed for INSIG-1 degradation. (E) Schematic representation of AUP1 in the ER membrane and deletion mutants used in subsequent experiments. Amino acid residues are numbered spanning each domain. (F) AUP1 KO cells were transfected with NHK-HA and plasmids encoding the indicated FLAG-tagged AUP1 WT or deletion mutants and assessed for NHK degradation. (G) HEK293 (Parental) or HEK293 AUP1 KO cells were assessed for degradation of NHK-HA. (H) HEK293 AUP1 KO cells were assessed for NHK-HA degradation as in (F). Markers represent apparent molecular weight in kDa. The data underlying this figure can be found in S1 Data. aa, amino acid; AUP1, ancient ubiquitous protein 1; CHX, cycloheximide; ER, endoplasmic reticulum; ERAD, endoplasmic reticulum–associated degradation; G2BR, UBE2G2 Binding Region; KO, knockout; NHK, Null Hong Kong; WT, wild type.
Fig 6 Disruption of UBE2G2:G2BR^AUP1 interaction abrogates AUP1 function in cells. (A) GST or indicated GST-AUP1 fusions (aa 292 to 410, expression shown in Coomassie-stained gel) were immobilized on glutathione beads and binding to ^35S-UBE2G2 was assessed as in Fig 3A. Mutations include 2A (R382A/Q383A), 2E (R382E/Q383E), and 5E (R382E/Q383E/K390E/R398E/R400E). (B) AUP1 KO cells were transfected with NHK-HA and forms of full-length AUP1-FLAG with the indicated point mutations from (A) and NHK degradation assessed by CHX chase. (C) Binding assay performed as in (A) with AUP1 mutants predicted to disrupt hydrophobic interactions with UBE2G2. (D) Cellular assay performed as in (B) with AUP1-FLAG mutants that disrupt interactions with UBE2G2 in vitro in (C). The data underlying this figure can be found in S1 Data. aa, amino acid; AUP1, ancient ubiquitous protein 1; CHX, cycloheximide; G2BR, UBE2G2 Binding Region; KO, knockout; WT, wild type.
Fig 8 Recruitment of UBE2G2 to the ER membrane and activation by G2BR^AUP1 is required for ERAD. (A) HT1080 or AUP1 KO cells were transfected with NHK-HA and either empty vector or MYC-UBE2G2 and NHK turnover assessed by CHX chase. (B) AUP1 KO cells were transfected with NHK-HA and GFP fusions of either a scrambled G2BR sequence (SCR) or G2BR^AUP1 and NHK turnover and levels of endogenous UBE2G2 assessed. Luciferase and β-actin served as transfection efficiency and gel loading controls, respectively. (C) AUP1 KO cells were transfected with NHK-HA, MYC-UBE2G2, and either GFP-SCR or GFP-G2BR^AUP1 and NHK turnover assessed. (D) Membrane fractionation was performed on HT1080 or AUP1 KO cells transfected with either empty vector or AUP1-FLAG and localization of UBE2G2 assessed by western blotting. Localization of β-actin (cytosol) and Calnexin (ER membrane) were used as controls for cytosolic (C) and membrane (M) fractions, respectively. (E) Membrane fractionation of AUP1 KO cells transfected with either MYC-UBE2G2 or TM-UBE2G2. (F) HT1080 cells were transfected with TM-UBE2G2 and its localization assessed by confocal microscopy. Images shown are from an optical section after deconvolution. HA-tagged UBE2J2, an ER-localized E2, serves as an ER marker. […]

Molecule	NHK degradation, soluble G2BR alone (GFP fusion overexpressed without UBE2G2, HT1080 AUP1 KO)	NHK degradation, soluble G2BR with UBE2G2 (GFP-G2BR^AUP1 co-expressed with MYC-UBE2G2, HT1080 AUP1 KO)	NHK degradation, soluble G2BR with TM-UBE2G2 (GFP-G2BR^AUP1 co-expressed with TM-UBE2G2, HT1080 AUP1 KO)	NHK degradation, UBE2G2 overexpression (UBE2G2 form transfected without G2BR, HT1080 AUP1 KO)
GFP-G2BR^AUP1: GFP fusion of AUP1 aa 378 to 404 (SSWARQESLQERKQALYEYARRRFTER; also: GFP fusion; UniProt Q9Y679 378-404, looked up, fragment)	insufficient to reconstitute NHK degradation	did not restore NHK degradation	fully restored	
UBE2G2: ERAD ubiquitin-conjugating enzyme (E2); purified in vitro, N-terminally MYC-tagged in cells (protein) MAGTALKRLMAEYKQLTLNPPEGIVAGPMNEENFFEWEALIMGPEDTCFEFGVFPAILSFPLDYPLSPPKMRFTCEMFHPNIYPDGRVCISILHAPGDDPMGYESSAERWSPVQSVEKILLSVVSMLAEPNDESGANVDASKMWRDDREQFYKIAKQIVQKSLGL				did not restore NHK degradation
